According to patent US10800791B2, “Triazole ACC inhibitors and uses thereof” (Gilead Apollo, LLC, priority 2015, dated 2020):
Converted amounts (≈) assume the structure as drawn. Like-named read-outs stand apart in the source and are kept apart here.

Assays:
[1] = test system: Fusarium virguliforme (Fv); assay: Growth inhibition assay of fungal pathogens, Fv; format: cell-based; details: 48 h
Procedure, shortened: (§1)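 Read-out: OD600 plus visual rating at 24 and 48 h, blank (media + 2% DMSO) subtracted. Percent inhibition was derived at 48 h versus the 2% DMSO control. Spores were grown in 17% V8 broth with compound at 50/10/2 or 2/0.4/0.08 ppm final.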

C. krusei = assay: Antifungal Activity Assay (broth microtiter MIC), C. krusei; format: cell-based, Candida krusei; details: Pichia kudriavzevii, ATCC6258, 48 h
Procedure, shortened: (§2)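 MICs were scored by eye at 48 h relative to the growth control. Plates followed CLSI M27-A3, with Candida suspensions in RPMI 1640+MOPS giving a final 2.5×10^3 CFU/mL; the colonies came from Sabouraud agar grown overnight at 35 °C.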

human (hACC2) = human (hACC2) (Homo sapiens, UniProt O00763); assay: In vitro ACC inhibition assay (ADP-Glo), hACC2; format: biochemical; details: 5 nM ACC2, 20 μM ATP, 20 μM acetyl-CoA
Experimental: The detailed procedure is as follows. […] 10 μL ADP glo reagent was added. […] 20 μL kinase detection reagent was added.

Septoria tritici (St) = assay: Growth inhibition assay of fungal pathogens, St; format: cell-based; details: Zymoseptoria tritici, 48 h
Procedure, shortened: as §1

[2] = test system: Phytophthora capsici (Pc); assay: Growth inhibition assay of fungal pathogens, Pc; format: cell-based; details: 48 h
Procedure, shortened: as §1

fungal (fACC2) = fungal (fACC2) (UniProt Q00955); details: read-out: fACC2 (in vitro ACC2 Inhibition Assay, IC50), ADP-Glo, 5 nM ACC2, 20 μM ATP, 20 μM acetyl-CoA
Rhizoctonia solani (Rs) = assay: Growth inhibition assay of fungal pathogens, Rs; format: cell-based; details: 48 h
C. parapsilosis = assay: Antifungal Activity Assay (broth microtiter MIC), C. parapsilosis; format: cell-based, Candida parapsilosis; details: Lodderomyces parapsilosis, ATCC22019, 48 h
Procedure, shortened: as §2

[3] = test system: Fusarium moniliforme (Fm); assay: Growth inhibition assay of fungal pathogens, Fm; format: cell-based; details: for IC90: Fusarium verticillioides, 48 h, read-out: Concentration at 90% Inhibition Fm
Procedure, shortened: as §1

Botrtyis cinerea (Bc) = assay: Growth inhibition assay of fungal pathogens, Bc; format: cell-based; details: 48 h
Procedure, shortened: as §1

[4] = growth inhibition at 48 hours vs 2% DMSO control, read-out: Concentration at 90% Inhibition Fv
[5] = growth inhibition vs 2% DMSO control at 48 hours, read-out: Concentration at 90% Inhibition Fv
[6] = Table 3a, ATCC 6258, 3 replicates, MIC recorded at 48 h, read-out: MIC, C. krusei ATCC 6258
[7] = Table 3b (additional results), ATCC 6258, 3 replicates, MIC recorded at 48 h, read-out: MIC, C. krusei ATCC 6258
[8] = Septoria tritici, growth inhibition at 48 hours vs 2% DMSO control, read-out: Concentration at 90% Inhibition St
[9] = Septoria tritici, growth inhibition vs 2% DMSO control at 48 hours, read-out: Concentration at 90% Inhibition St
[10] = growth inhibition at 48 hours vs 2% DMSO control, read-out: Concentration at 90% Inhibition Pc
[11] = growth inhibition vs 2% DMSO control at 48 hours, read-out: Concentration at 90% Inhibition Pc
[12] = mycelial plugs, growth inhibition at 48 hours vs 2% DMSO control, read-out: Concentration at 90% Inhibition Rs
[13] = mycelial plugs, growth inhibition vs 2% DMSO control at 48 hours, read-out: Concentration at 90% Inhibition Rs
[14] = Table 3a, ATCC 22019, 3 replicates, MIC recorded at 48 h, read-out: MIC, C. parapsilosis ATCC 22019
[15] = Table 3b (additional results), ATCC 22019, 3 replicates, MIC recorded at 48 h, read-out: MIC, C. parapsilosis ATCC 22019
[16] = Fusarium moniliforme, growth inhibition at 48 hours vs 2% DMSO control
[17] = Fusarium moniliforme, growth inhibition vs 2% DMSO control at 48 hours
[18] = Botrtyis cinerea, growth inhibition at 48 hours vs 2% DMSO control, read-out: Concentration at 90% Inhibition Bc
[19] = Botrtyis cinerea, growth inhibition vs 2% DMSO control at 48 hours, read-out: Concentration at 90% Inhibition Bc

Chain of fungal (fACC2) (Q00955 whole entry): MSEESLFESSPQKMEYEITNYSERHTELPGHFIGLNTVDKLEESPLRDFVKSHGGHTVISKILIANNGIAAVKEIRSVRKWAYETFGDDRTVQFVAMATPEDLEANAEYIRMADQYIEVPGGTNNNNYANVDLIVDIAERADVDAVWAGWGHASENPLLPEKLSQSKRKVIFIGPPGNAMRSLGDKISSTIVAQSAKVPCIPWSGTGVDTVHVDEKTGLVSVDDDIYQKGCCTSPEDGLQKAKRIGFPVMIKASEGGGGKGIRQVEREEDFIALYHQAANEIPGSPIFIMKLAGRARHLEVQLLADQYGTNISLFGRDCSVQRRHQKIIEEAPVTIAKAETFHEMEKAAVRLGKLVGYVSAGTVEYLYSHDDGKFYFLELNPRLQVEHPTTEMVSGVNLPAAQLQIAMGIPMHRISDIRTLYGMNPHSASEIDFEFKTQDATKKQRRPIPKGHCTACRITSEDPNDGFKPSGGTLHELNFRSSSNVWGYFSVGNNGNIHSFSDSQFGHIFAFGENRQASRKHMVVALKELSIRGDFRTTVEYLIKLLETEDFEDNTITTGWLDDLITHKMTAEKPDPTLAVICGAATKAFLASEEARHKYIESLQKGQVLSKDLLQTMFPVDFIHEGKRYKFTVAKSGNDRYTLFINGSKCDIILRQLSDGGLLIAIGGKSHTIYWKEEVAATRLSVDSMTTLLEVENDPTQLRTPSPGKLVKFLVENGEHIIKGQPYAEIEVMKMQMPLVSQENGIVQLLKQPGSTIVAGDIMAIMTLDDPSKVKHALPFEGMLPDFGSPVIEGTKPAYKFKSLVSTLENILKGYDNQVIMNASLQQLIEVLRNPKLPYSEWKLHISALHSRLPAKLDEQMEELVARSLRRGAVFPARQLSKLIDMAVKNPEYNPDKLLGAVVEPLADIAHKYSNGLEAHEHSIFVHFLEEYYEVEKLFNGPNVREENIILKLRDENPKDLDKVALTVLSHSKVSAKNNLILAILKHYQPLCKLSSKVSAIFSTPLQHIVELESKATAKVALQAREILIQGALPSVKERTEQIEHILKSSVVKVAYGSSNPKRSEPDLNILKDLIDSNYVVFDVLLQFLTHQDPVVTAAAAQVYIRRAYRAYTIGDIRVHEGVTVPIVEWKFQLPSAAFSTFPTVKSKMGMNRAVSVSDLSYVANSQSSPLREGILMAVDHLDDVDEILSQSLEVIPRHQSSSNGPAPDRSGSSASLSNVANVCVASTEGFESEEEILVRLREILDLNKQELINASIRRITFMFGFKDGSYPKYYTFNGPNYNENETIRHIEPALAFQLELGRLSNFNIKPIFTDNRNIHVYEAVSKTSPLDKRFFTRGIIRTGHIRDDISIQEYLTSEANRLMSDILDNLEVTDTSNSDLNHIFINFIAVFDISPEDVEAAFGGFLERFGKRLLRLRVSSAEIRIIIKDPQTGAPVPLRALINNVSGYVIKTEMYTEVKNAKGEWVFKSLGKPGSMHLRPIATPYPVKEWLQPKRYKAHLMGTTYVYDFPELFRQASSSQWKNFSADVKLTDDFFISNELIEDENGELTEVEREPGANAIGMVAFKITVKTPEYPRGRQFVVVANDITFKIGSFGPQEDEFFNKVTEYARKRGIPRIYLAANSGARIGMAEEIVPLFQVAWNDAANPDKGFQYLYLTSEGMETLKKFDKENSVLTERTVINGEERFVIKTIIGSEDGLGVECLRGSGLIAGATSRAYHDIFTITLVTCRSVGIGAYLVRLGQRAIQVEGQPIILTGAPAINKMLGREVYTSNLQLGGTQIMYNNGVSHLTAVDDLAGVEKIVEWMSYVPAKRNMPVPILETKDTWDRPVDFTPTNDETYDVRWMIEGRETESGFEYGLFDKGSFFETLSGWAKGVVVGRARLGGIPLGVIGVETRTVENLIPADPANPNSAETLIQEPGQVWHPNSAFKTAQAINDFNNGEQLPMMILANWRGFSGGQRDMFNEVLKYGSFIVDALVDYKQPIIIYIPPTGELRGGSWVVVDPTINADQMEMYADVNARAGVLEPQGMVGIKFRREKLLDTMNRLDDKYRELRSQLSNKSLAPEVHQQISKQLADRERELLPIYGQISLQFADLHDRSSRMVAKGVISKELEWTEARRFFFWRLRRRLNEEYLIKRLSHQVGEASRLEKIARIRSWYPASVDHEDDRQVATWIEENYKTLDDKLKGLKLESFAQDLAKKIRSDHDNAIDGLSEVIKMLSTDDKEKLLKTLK
Chain of human (hACC2) (O00763 whole entry): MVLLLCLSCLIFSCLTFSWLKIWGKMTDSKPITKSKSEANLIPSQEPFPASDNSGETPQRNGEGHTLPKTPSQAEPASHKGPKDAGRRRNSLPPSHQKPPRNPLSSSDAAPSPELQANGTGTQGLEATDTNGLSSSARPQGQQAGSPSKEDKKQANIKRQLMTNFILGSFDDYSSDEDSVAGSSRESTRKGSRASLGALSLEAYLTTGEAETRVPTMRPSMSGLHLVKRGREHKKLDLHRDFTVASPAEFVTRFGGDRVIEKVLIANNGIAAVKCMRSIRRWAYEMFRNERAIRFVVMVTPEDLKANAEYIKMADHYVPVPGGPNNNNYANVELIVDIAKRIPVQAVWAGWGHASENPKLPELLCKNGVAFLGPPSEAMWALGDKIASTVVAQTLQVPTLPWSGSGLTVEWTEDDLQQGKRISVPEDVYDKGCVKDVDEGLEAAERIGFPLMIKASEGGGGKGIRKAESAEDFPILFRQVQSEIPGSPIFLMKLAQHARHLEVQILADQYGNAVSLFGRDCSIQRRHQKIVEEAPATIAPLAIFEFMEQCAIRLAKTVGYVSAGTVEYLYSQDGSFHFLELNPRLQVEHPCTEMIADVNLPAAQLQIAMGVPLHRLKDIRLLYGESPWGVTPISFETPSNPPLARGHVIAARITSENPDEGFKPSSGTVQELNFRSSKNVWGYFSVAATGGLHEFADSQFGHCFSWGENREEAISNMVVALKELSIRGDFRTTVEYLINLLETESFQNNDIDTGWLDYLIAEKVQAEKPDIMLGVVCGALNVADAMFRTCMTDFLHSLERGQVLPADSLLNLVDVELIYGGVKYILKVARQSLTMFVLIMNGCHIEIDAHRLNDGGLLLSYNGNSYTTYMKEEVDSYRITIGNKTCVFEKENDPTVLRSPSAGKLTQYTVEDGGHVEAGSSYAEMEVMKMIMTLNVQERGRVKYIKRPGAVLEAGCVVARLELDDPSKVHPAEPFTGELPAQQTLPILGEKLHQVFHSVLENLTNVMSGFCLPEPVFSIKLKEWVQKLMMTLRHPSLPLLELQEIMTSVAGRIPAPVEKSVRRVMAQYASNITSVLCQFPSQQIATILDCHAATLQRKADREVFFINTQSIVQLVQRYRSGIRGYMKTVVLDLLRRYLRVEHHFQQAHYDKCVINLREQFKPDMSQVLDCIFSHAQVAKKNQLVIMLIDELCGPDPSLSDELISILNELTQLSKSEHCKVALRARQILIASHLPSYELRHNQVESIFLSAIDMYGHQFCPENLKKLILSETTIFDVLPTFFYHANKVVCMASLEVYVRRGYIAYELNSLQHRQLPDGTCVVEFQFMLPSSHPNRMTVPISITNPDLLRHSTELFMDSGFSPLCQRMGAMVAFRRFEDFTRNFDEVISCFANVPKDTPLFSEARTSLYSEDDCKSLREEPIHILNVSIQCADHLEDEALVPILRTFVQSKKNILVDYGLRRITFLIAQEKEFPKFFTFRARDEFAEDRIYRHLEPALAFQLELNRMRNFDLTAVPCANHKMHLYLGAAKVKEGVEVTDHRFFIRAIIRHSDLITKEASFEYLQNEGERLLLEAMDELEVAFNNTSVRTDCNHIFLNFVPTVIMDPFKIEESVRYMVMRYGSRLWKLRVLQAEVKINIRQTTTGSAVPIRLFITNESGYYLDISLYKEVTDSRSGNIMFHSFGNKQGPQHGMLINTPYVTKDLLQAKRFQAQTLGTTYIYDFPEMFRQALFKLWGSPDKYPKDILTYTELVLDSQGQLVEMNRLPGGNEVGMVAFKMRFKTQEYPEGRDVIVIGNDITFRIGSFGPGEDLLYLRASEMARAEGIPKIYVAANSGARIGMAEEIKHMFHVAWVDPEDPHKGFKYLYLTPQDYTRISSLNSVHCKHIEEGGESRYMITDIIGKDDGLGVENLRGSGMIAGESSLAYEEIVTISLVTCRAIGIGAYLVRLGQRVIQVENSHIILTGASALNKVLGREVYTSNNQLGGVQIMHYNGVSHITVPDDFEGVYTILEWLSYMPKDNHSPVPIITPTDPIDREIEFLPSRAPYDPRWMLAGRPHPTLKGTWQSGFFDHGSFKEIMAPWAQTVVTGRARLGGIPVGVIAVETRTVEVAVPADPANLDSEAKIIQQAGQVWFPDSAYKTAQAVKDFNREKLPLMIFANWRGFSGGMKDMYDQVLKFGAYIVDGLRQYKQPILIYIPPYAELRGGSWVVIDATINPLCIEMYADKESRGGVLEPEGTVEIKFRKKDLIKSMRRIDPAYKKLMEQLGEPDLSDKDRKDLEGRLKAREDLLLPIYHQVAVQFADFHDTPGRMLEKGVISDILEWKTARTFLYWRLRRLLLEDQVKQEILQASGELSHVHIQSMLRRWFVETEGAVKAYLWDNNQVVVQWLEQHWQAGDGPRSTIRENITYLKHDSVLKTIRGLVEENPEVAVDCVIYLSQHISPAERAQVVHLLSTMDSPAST

Row | SMILES | IC90 [1, 4] | IC90 [1, 5] | MIC (C. krusei; [6]) | MIC (C. krusei; [7]) | IC50 (human (hACC2); Table 2a) | IC50 (human (hACC2); Table 2b, additional results) | IC90 (Septoria tritici (St); [8]) | IC90 (Septoria tritici (St); [9]) | IC90 [2, 10] | IC90 [2, 11] | IC50 (fungal (fACC2); Table 2a) | IC50 (fungal (fACC2); Table 2b, additional results) | IC90 (Rhizoctonia solani (Rs); [12]) | IC90 (Rhizoctonia solani (Rs); [13]) | MIC (C. parapsilosis; [14]) | MIC (C. parapsilosis; [15]) | IC90 [3, 16] | IC90 [3, 17] | IC90 (Botrtyis cinerea (Bc); [18]) | IC90 (Botrtyis cinerea (Bc); [19]) | further results
1 | COc1ccc(F)cc1[C@H](Cn1c(=O)n([C@H](C)C(=O)N(C)C(C)C)c(=O)c2c(C)c(-n3nccn3)sc21)OCCO [Compound I-85, (R)-2-(1-((R)-2-(5-fluoro-2-methoxyphenyl)-2-(2-hydroxy-ethoxy)ethyl)-5-methyl-2,4-dioxo-6-(2H-1,2,3-triazol-2-yl)-1,4-dihydro-thieno[2,3-d]pyrimidin-3(2H)-yl)-N-isopropyl-N-methylpropanamide] | 0.4 µg/mL (≈ 0.68 µM) | 0.4 µg/mL (≈ 0.68 µM) | 0.25 to 1 µg/mL (≈ 0.425 to 1.7 µM) | 1.01 to 2 µg/mL (≈ 1.72 to 3.4 µM) | 10 to 40 nM | 10 to 40 nM | 2 µg/mL (≈ 3.4 µM) | 10 µg/mL (≈ 17 µM) | 2 µg/mL (≈ 3.4 µM) | 2 µg/mL (≈ 3.4 µM) | 0.4 to 1 nM | 0.3 to 1 nM | 0.08 µg/mL (≈ 0.136 µM) | 0.08 µg/mL (≈ 0.136 µM) | 0.25 to 1 µg/mL (≈ 0.425 to 1.7 µM) | 2.01 to 4 µg/mL (≈ 3.41 to 6.8 µM) | 0.08 µg/mL (≈ 0.136 µM) | 0.08 µg/mL (≈ 0.136 µM) | 2 µg/mL (≈ 3.4 µM) | 2 µg/mL (≈ 3.4 µM) | 
2 | COCCCO[C@@H](Cn1c(=O)n([C@@H](C)C(=O)NC(C)C)c(=O)c2c(C)c(-n3nccn3)sc21)c1cc(F)ccc1OC [Compound I-86, (S)-2-(1-((R)-2-(5-fluoro-2-methoxyphenyl)-2-(3-methoxy-propoxy)ethyl)-5-methyl-2,4-dioxo-6-(2H-1,2,3-triazol-2-yl)-1,4-dihydrothieno[2,3-d]pyrimidin-3(2H)-yl)-N-isopropylpropanamide] |  |  |  |  | 10 to 40 nM | 10 to 40 nM |  |  |  |  | 1 to 5 nM | 1 to 5 nM |  |  |  |  |  |  |  |  | IC90 ([1]; read-out: Concentration at 90% Inhibition Fv, Fusarium virguliforme, growth inhibition at 48 hours vs 2% DMSO control): 10 µg/mL (≈ 16.6 µM); IC90 ([1]; read-out: Concentration at 90% Inhibition Fv, Fusarium virguliforme, growth inhibition vs 2% DMSO control at 48 hours): > 50 µg/mL; MIC (C. krusei; read-out: MIC, C. krusei ATCC 6258, Table 3a, 3 replicates, MIC recorded at 48 h): 2.1 to 4 µg/mL (≈ 3.48 to 6.64 µM); MIC (C. krusei; read-out: MIC, C. krusei ATCC 6258, Table 3b (additional results), 3 replicates, MIC recorded at 48 h): 1.01 to 2 µg/mL (≈ 1.68 to 3.32 µM); IC90 (Septoria tritici (St); read-out: Concentration at 90% Inhibition St, Septoria tritici, growth inhibition at 48 hours vs 2% DMSO control): > 50 µg/mL; IC90 (Septoria tritici (St); read-out: Concentration at 90% Inhibition St, Septoria tritici, growth inhibition vs 2% DMSO control at 48 hours): > 50 µg/mL; IC90 ([2]; read-out: Concentration at 90% Inhibition Pc, Phytophthora capsici, growth inhibition at 48 hours vs 2% DMSO control): > 50 µg/mL; IC90 ([2]; read-out: Concentration at 90% Inhibition Pc, Phytophthora capsici, growth inhibition vs 2% DMSO control at 48 hours): > 50 µg/mL; IC90 (Rhizoctonia solani (Rs); read-out: Concentration at 90% Inhibition Rs, Rhizoctonia solani, mycelial plugs, growth inhibition at 48 hours vs 2% DMSO control): 2 µg/mL (≈ 3.32 µM); IC90 (Rhizoctonia solani (Rs); read-out: Concentration at 90% Inhibition Rs, Rhizoctonia solani, mycelial plugs, growth inhibition vs 2% DMSO control at 48 hours): 2 µg/mL (≈ 3.32 µM); MIC (C. parapsilosis; read-out: MIC, C. parapsilosis ATCC 22019, Table 3a, 3 replicates, MIC recorded at 48 h): 2.1 to 4 µg/mL (≈ 3.48 to 6.64 µM); MIC (C. parapsilosis; read-out: MIC, C. parapsilosis ATCC 22019, Table 3b (additional results), 3 replicates, MIC recorded at 48 h): 1.01 to 2 µg/mL (≈ 1.68 to 3.32 µM); Concentration at 90% Inhibition Fm [3, 16]: AA (compound concentration of 0.08 ppm at 90% inhibition of fungal pathogens); IC90 [3]: 0.08 µg/mL (≈ 0.133 µM); IC90 (Botrtyis cinerea (Bc); read-out: Concentration at 90% Inhibition Bc, Botrtyis cinerea, growth inhibition at 48 hours vs 2% DMSO control): 0.4 µg/mL (≈ 0.664 µM); IC90 (Botrtyis cinerea (Bc); read-out: Concentration at 90% Inhibition Bc, Botrtyis cinerea, growth inhibition vs 2% DMSO control at 48 hours): 0.4 µg/mL (≈ 0.664 µM)
3 | COCCCO[C@@H](Cn1c(=O)n([C@H](C)C(=O)NC(C)C)c(=O)c2c(C)c(-n3nccn3)sc21)c1cc(F)ccc1OC [Compound I-87, (R)-2-(1-((R)-2-(5-fluoro-2-methoxyphenyl)-2-(3-methoxy-propoxy)ethyl)-5-methyl-2,4-dioxo-6-(2H-1,2,3-triazol-2-yl)-1,4-dihydrothieno[2,3-d]pyrimidin-3(2H)-yl)-N-isopropylpropanamide] | 0.08 µg/mL (≈ 0.133 µM) | 0.08 µg/mL (≈ 0.133 µM) | 1.1 to 2 µg/mL (≈ 1.83 to 3.32 µM) | 1.01 to 2 µg/mL (≈ 1.68 to 3.32 µM) | 5 to 10 nM | 5 to 10 nM | 10 µg/mL (≈ 16.6 µM) | > 50 µg/mL | > 50 µg/mL | > 50 µg/mL | 1 to 5 nM | 1 to 5 nM | 0.08 µg/mL (≈ 0.133 µM) | 0.08 µg/mL (≈ 0.133 µM) | 0.25 to 1 µg/mL (≈ 0.415 to 1.66 µM) | 1.01 to 2 µg/mL (≈ 1.68 to 3.32 µM) | 0.08 µg/mL (≈ 0.133 µM) | 0.08 µg/mL (≈ 0.133 µM) | 0.08 µg/mL (≈ 0.133 µM) | 0.08 µg/mL (≈ 0.133 µM) | 
